Reference: patent US20020061514A1, “Assay for identifying modulators of chondrogenesis” (priority 2000, published 2002)

How the values were obtained:
Type in all cases: cell-based, mouse
[1] = system: pGL3(4X48) Sox9 responsive reporter gene; test: pGL3(4X48) luciferase reporter gene activity in transiently transfected primary limb mesenchymal cultures; conditions: for normalized RLU (pGL3(4X48) reporter gene activity): RLU values normalized to control reporter activity
From the text: (§1) To increase reporter gene sensitivity, the Sox9 responsive reporter gene from 4X48-p89 luciferase (14) was subcloned into pGL3-basic (Promega). A fragment containing the reiterated (4 X 48) Sox9 binding sequence upstream of the mouse col II minimal promoter (−89 to +13) was liberated from 4X48-p89 plasmid by digestion with Bam HI and Hind III. This fragment was subcloned into the Bgl II and […] sites of pGL3-basic (Promega) to generate pGL3(4X48). To generate an EGFP-based col II reporter, the luciferase gene within pGL3(4X48) was replaced with EGFP-N1 (Clontech). For expression of genes in primary cultures a modified version of pSG5 (Stratagene), pSG5HS, was used which contains two additional restriction endonuclease sites, Hind III and Spe I. The myogenin promoter-luciferase construct was made by subcloning a 1.14 kB fragment of the myogenin promoter (containing the region from pGZ1092) from plasmid pGBB into pGL3-basic. The cardiac actin promoter-luciferase vector was generated by subcloning a fragment of the cardiac actin promoter from −440 to +6 into pGL3-basic.
(§2) Limb mesenchymal cells were harvested from embryonic age 11.25-11.75 mouse embryos as previously described (19). To establish proximal or distal cultures the proximal half of each limb bud was separated from the distal half, and each pool of limb fragments was processed separately. The cells were resuspended at a density of 1.5−2×10^7 cells/ml. For transfection purposes, cells were mixed with a DNA/FuGene6 mixture in a 2:1 ratio. FuGene6-DNA mixtures were prepared according to the manufacturer's instructions (Roche Biomolecular). Briefly, 1 μg of reporter, 1 μg of expression vector and 0.05 μg of pRLSV40 (Promega) were mixed for a total of ˜2 μg DNA in 100 μl of media and FuGene6. Fifty microlitres of the DNA mixture was transferred into a sterile 1.5 ml eppendorf tube, followed by 100 μl of cells. Cells were gently triturated and 10 μl was used to seed a single well of a 24-well culture dish. After 1.5 hrs in a humidified CO2 incubator, 1 ml of media containing compounds of interest was added to each well and was subsequently replaced 24 hrs following transfection.
Analysis of reporter gene activity using the Dual Luciferase Assay System was done following the manufacturer's instructions (Promega). Briefly, ˜48 hrs post-transfection, cells were washed once with PBS and lysed in 100 μl of Passive Lysis Buffer for 20 min. Firefly and renilla luciferase activities were determined using 40 μl of lysate in a 96-well plate reading luminometer (Molecular Devices).

[2] = system: pGL3-4X48-EGFP reporter (Sox9 activity); test: pGL3(4X48)-EGFP reporter in primary limb mesenchymal cultures; conditions: 10 ng/ml, 64 hours post-transfection, vs untreated control cultures
From the text: as §1
Limb mesenchymal cells were harvested from embryonic age 11.25-11.75 mouse embryos as previously described (19). To establish proximal or distal cultures the proximal half of each limb bud was separated from the distal half, and each pool of limb fragments was processed separately. […]

limb mesenchymal cells = test: Alcian blue staining of cartilage nodules in primary limb mesenchymal cultures; conditions: 10 ng/ml, 2 and 4 days, vs untreated cultures
Experimental: as §2

“BMP-4: bone morphogenetic protein added to cultures at 10 ng/ml” was tested, and the “normalized RLU (pGL3(4X48) reporter gene activity)” value (from here on “normalized RLU”) ([1]; protein added at 10 ng/ml) was 4.2, the “increase in reporter gene activity” value ([1]; treatment of reporter gene-transfected cells, 10 ng/ml (FIG. 3H)) was about 4.5 fold and the “number of EGFP-expressing (fluorescing) cells” value [2] was “enhanced”. The “cartilage nodule number (alcian blue)” value (limb mesenchymal cells) was “dramatic increase in nodule number”.

Wnt3a was tested, and the “normalized RLU” value ([1]; co-transfected expression construct) was 0.5.

B1: Noggin: BMP pathway protein added at 100 ng/ml (protein, UniProt Q13253 28-232, looked up)
Noggin: QHYLHIRPAPSDNLPLVDLIEHPDPIFDPKEKDLNETLLRSLLGGHYDPGFMATSPPEDRPGGGGGAAGGAEDLAELDQLLRQRPSGAMPSEIKGLEFSEGLAQGKKQRLSKKLRRKLQMWLWSQTFCPVLYAWNDLGSRFWPRYVKVGSCFSKRSCSVPEGMVCKPSKSVHLTVLRWRCQRRGGQRCGWIPIQYPIISECKCSC
For B1, the “normalized RLU” value ([1]; protein added at 100 ng/ml) was 0.3.
